# Data: patent US20250228873A1, “C25 R AND S ISOMERS OF AMINOSTEROLS AND METHODS OF MAKING AND USING THE SAME” (Enterin, Inc., priority 2022, published 2025)
# Several values for one entry are separate records, joined by “and”; a condition that tells them apart may be missing. Identical values can stand only once. Entries after “also recorded” stand apart in the source; their conditions may differ.
# Key:
# [1] = test system: stomach, jejunum and ileum; assay: GI tract transcriptome (RNAseq) after oral ENT-03, young vs aged mice; type: in vivo, C57bl/6 male mice
# Procedure: Young (20 week) and aged (80 week) C57bl/6 male mice were administered ENT-03 (40 mg/kg) or vehicle (water) by oral gavage daily for 2 weeks. Over this period of time clinical observations were unremarkable as were the gross and microscopic examinations of the GI tract. The transcriptomes of the stomach, jejunum and ileum were analyzed by RNAseq technology. Comparative analyses of the transcripts from untreated animals identified numerous transcripts that differed in abundance between the corresponding tissues from old and young individuals. […] Thus, within these three distinct regions of the mouse GI tract, ageing is associated with changes in the transcriptome.
# Statistical analysis of RNA-sequencing data was performed using R programming language. Transcripts with less than one read count per million reads in all samples of each tissue were removed. The raw count data for the samples were then normalised using trimmed mean of M-values normalisation and transformed with voom (Law et al., 2014), resulting in log 2-transformed counts per million with associated precision weights. […] Statistical comparisons were performed using linear modelling, as implemented in the Bioconductor package limma (Ritchie et al., 2015). Significance values (p-values) were adjusted for multiple testing using Benjamini-Hochberg procedure (Benjamini et al., 1995). For each comparison (e.g. group A versus group B), a positive log 2-transformed fold change indicates up-regulation in group A relative to group B.
# To investigate the overlap between contrasts, the number of overlapping differentially expressed genes (defined using adjusted p-value <0.05) between all pairwise combinations of the comparisons performed were counted. For each comparison, the Jaccard index, defined as the intersection over the union, measures the similarity between the two contrasts under consideration. The p-value was calculated using a hypergeometric test taking into account the universe size under the assumption that the contrasts and genes are independent.
# [2] = Weight loss, 3, 5, 10 mg/kg (FIG. 14); type: in vivo, C57bl/6 male mice; details: intraperitoneal 3, 5, 10 mg/kg once weekly over 2 weeks
# [3] = test system: hAPP-J20 mice; assay: Morris water maze, amyloid Alzheimer's model; type: in vivo; details: 2.5 mg/kg/wk i.p. over 6 weeks, vs vehicle treated littermates
# Source text: (§1) The Morris water maze was used to test the effect of ENT-03 on spatial learning and memory deficits in 2 mouse models of familial Alzheimer's disease, hAPP-J20 mice that express a double mutant of the human amyloid precursor protein (Mucke et al., 2000), and PS19 mice that express the P301S mutant of the human microtubule associated protein tau (Yoshiyama et al., 2007).
# (§2) hAPP-J20 mice expressing human APP bearing the Swedish and Indiana familial mutations (B6.Cg-Zbtb20Tg(PDGFB-APPSwInd)20Lms/2Mmjax, (Mucke et al., 2000)) and PS19 mice expressing the P301S mutation of human tau protein (B6;C3-Tg(Prnp-MAPT*P301S)PS19Vle/J (Yoshiyama et al., 2007)) were purchased from Jackson laboratories and maintained as colonies in the animal facility of the University of Ottawa. Heterozygous hAPP-J20 and PS19 mice were used. Genotypes were verified by PCR using genomic DNA isolated from tail or ear biopsies. […]
# (§3) The Morris water maze test to analyze the ability of mice to learn and remember the location of a submerged platform in a pool containing opaque water was conducted in the Faculty of Medicine Behavior Core Laboratory at the University of Ottawa. […] On the probe day, crossings of the platform area and target quadrant were counted and swimming speed was measured using Ethovision automated video tracking software (Noldus).
# [4] = Mouse weight after deuterated ENT-03 i.p. (FIG. 12); type: in vivo; details: i.p. to mice
# Source text: The presence of the deuterium on the side chain likely slows the action of the 2-methylacyl-coenzyme A racemase on C-25, the subsequent action of the dehydrogenase that produces the 24,25-trans-unsaturated derivative by removing the deuterium atoms at C24 and C25, and the subsequent hydration and oxidation at the C24 bond catalyzed by the D-bifunctional protein. Instead, the metabolism of ENT-03D3 will begin with the oxidation at C24 by CYP46A1, yielding the following compound: […]
# [5] = test system: PS19 mice; assay: Morris water maze, tau Alzheimer's model; type: in vivo; details: 2.5 mg/kg/wk i.p. over 6 weeks, vs vehicle treated littermates
# Source text: as §1, §2, §3
# [6] = test system: stomach tissues; assay: Stomach RNA-sequencing, ENT-02 (MSI-1436) treatment and congruence with ENT-03 (Example 10); type: in vivo, mice
# Procedure: Samples of stomach tissues from the mice were analysed by RNA-sequencing on an Illumina platform.
# To achieve these aims, data were subject to a quality control evaluation, differential expression and functional enrichment analyses, as well as a congruence analysis.
# […] At this threshold, differentially expressed genes were identified in all contrasts.
# As mentioned previously, for statistical robustness, only those with an adjusted p-value <0.05 should be considered. […]
# The amount of overlap is represented in FIGS. 28A-28D. For each comparison, the value in the plot represents the number of intersecting selected genes and the color represents the Jaccard index (the intersection over the union) for the two contrasts under consideration.
# Scatter plots, upset plots, venn diagrams, hypergeometric tests and Spearman rank correlation tests were employed to assess the level of overlap as shown in FIGS. 15-27.
compound,measurement,setting,value
"CC(CCC[C@@H](C)[C@H]1CCC2C3C(CC[C@@]21C)[C@@]1(C)CC[C@H](NCCCNCCCCNCCCN)C[C@@H]1C[C@H]3O)C(=O)O (single isomer, unassigned) [ENT-03]","clinical observations, gross and microscopic examinations of the GI tract","[1]; 40 mg/kg oral gavage daily for 2 weeks, young and aged mice",unremarkable
same,genes differentially expressed on treatment,"[1]; ileum, aged mice",1162 genes
same,genes differentially expressed on treatment,"[1]; ileum, young mice",80 genes
same,genes whose expression changed significantly in response to exposure,"[1]; jejunum and ileum, both young and aged mice",no more than 2 genes
same,genes differentially expressed on treatment,"[1]; jejunum, aged mice",382 genes
same,genes differentially expressed on treatment,"[1]; jejunum, young mice",42 genes
same,genes down-regulated in ageing that are up-regulated by treatment in old mice,[1]; stomach,37 genes and 36 genes
same,genes differentially expressed on treatment (p(adj)<0.05),"[1]; stomach, aged mice",63 genes
same,ageing genes further down regulated in the ageing direction by treatment,"[1]; stomach, young mice",12 genes
same,genes differentially expressed on treatment (p(adj)<0.05),"[1]; stomach, young mice (20 weeks)",13 genes
same,clinical appearance other than weight loss,[2],appeared clinically normal
same,effect on weight,[2],dose dependent weight loss
same,learning during the training phase (latency to find the hidden platform),[3],improved; also recorded: decreased the latency to find the hidden platform
same,"memory on the probe day (platform area crossings, time in platform area)",[3],improved memory
same,effect on weight,[4],loss of weight
same,learning during the training phase,[5],improved
same,memory on the probe day,[5],improved
"CC(C)[C@@H](CC[C@@H](C)[C@H]1CC[C@H]2[C@@H]3[C@H](O)C[C@H]4C[C@@H](NCCCNCCCCNCCCN)CC[C@]4(C)[C@H]3CC[C@]12C)OS(=O)(=O)O (single isomer, unassigned) [ENT-02 (MSI-1436), trodusquemine]",overlap of genes downregulated in aged mice with genes up-regulated by treatment in old mice,[6]; hypergeometric P<0.0001,overlapped significantly
same,overlap of genes down-regulated in ageing and up-regulated in treatment with those of ENT-03,"[6]; stomach, congruence analysis",did not overlap with those affected by ENT-03
